Measured values reported in patent publication US10105357B2, “Indication of antibiotic drugs for preparation of cancer inhibition pharmaceutical composition” (LAUNX BIOMEDICAL CO., LTD., priority 2014, dated 2018).
Where a name gives a salt, the structure may show the parent alone. Read-outs that look alike come from different tables or passages of the source.

Key:
[1] = test system: HI650 (Lung Adenocarcinoma); test: Cell viability analysis, lung cancer HI650; format: cell-based, human; conditions: Homo sapiens, NCI-H1650, 72 h
[2] = test system: A549 (Lung Adenocarcinoma); test: Cell viability analysis, lung cancer A549; format: cell-based, human; conditions: Homo sapiens, A549, 72 h
[3] = test system: AGS (Gastric Adenocarcinoma); test: Cell viability analysis, gastric cancer AGS; format: cell-based, human; conditions: Homo sapiens, 72 h
[4] = test system: MKN-45 (Gastric Adenocarcinoma); test: Cell viability analysis, gastric cancer MKN-45; format: cell-based, human; conditions: Homo sapiens, MKN-45, 72 h
[5] = test system: HepG2 (Hepatocellular Carcinoma); test: Cell viability analysis, hepatic cancer HepG2; format: cell-based, human; conditions: Homo sapiens, HepG2, 72 h
[6] = test system: Hep3B (hepatocellular carcinoma); test: Cell viability analysis, hepatic cancer Hep3B; format: cell-based, human; conditions: Homo sapiens, 72 h; Hep3B; repeated experiment; read-out: The results of antibiotic drug inhibiting cancer cell lines (cell viability analysis), Hep3B
[7] = test system: LoVo (Colorectal Adenocarcinoma); test: Cell viability analysis, colon cancer LoVo; format: cell-based, human; conditions: Homo sapiens, LoVo, 72 h
[8] = test system: A375 (Amelanotic Melanoma); test: Cell viability analysis, skin cancer A375; format: cell-based, human; conditions: Homo sapiens, A-375, 72 h
[9] = test system: BCC (basal cell carcinoma); test: Cell viability analysis, skin cancer BCC; format: cell-based, human; conditions: Homo sapiens, 72 h; BCC; repeated experiment; read-out: The results of antibiotic drug inhibiting cancer cell lines (cell viability analysis), BCC
[10] = test system: HeLa (Cervix Adenocarcinoma); test: Cell viability analysis, cervical cancer HeLa; format: cell-based, human; conditions: Homo sapiens, HeLa, 72 h, HeLa
[11] = test system: C-33A (Cervical carcinoma); test: Cell viability analysis, cervical cancer C-33A; format: cell-based, human; conditions: Homo sapiens, 72 h; C-33A; repeated experiment; read-out: The results of antibiotic drug inhibiting cancer cell lines (cell viability analysis), C-33A
[12] = test system: PC3 (p53−) (Prostate Adenocarcinoma); test: Cell viability analysis, prostate cancer PC3; format: cell-based, human; conditions: Homo sapiens, 72 h
[13] = test system: TSGH-8301 (Urinary Bladder Carcinoma); test: Cell viability analysis, bladder cancer TSGH-8301; format: cell-based, human; conditions: Homo sapiens, 72 h, drug 10 μM, 72 hours, WST-1, OD450 nm; read-out: cell viability (survival rate), TSGH
[14] = test system: T24; test: Cell viability analysis, bladder cancer T24; format: cell-based, human; conditions: Homo sapiens, T-24, 72 h; T24; repeated experiment; read-out: The results of antibiotic drug inhibiting cancer cell lines (cell viability analysis), T24
[15] = test system: MCF7 (Mammary Gland, Adenocarcinoma); test: Cell viability analysis, breast cancer MCF7; format: cell-based, human; conditions: Homo sapiens, MCF7, 72 h
[16] = test system: MDA-MB-231 (Mammary Gland, Adenocarcinoma); test: Cell viability analysis, breast cancer MDA-MB-231; format: cell-based, human; conditions: Homo sapiens, MDA-MB-231, 72 h; MDA-MB231; repeated experiment; read-out: The results of antibiotic drug inhibiting cancer cell lines (cell viability analysis), MDA-MB231
[17] = test system: BxPC-3; test: Cell viability analysis, pancreatic cancer BxPC-3; format: cell-based, human; conditions: Homo sapiens, 72 h; BxPC-3; repeated experiment; read-out: The results of antibiotic drug inhibiting cancer cell lines (cell viability analysis), BxPC-3
[18] = test system: AsPC-1; test: Cell viability analysis, pancreatic cancer AsPC-1; format: cell-based, human; conditions: Homo sapiens, ASPC1, 72 h; AsPC-1; repeated experiment; read-out: The results of antibiotic drug inhibiting cancer cell lines (cell viability analysis), AsPC-1
[19] = test system: NIH: OVCAR-3; test: Cell viability analysis, ovarian cancer NIH: OVCAR-3; format: cell-based, human; conditions: Homo sapiens, 72 h; NIH-OVCAR-3; repeated experiment; read-out: The results of antibiotic drug inhibiting cancer cell lines (cell viability analysis), NIH-OVCAR-3
[20] = test system: TOV-21G; test: Cell viability analysis, ovarian cancer TOV-21G; format: cell-based, human; conditions: Homo sapiens, TOV21G, 72 h; TOV-21G; repeated experiment; read-out: The results of antibiotic drug inhibiting cancer cell lines (cell viability analysis), TOV-21G
[21] = test system: SAS (Tongue squamous cell carcinoma); test: Cell viability analysis, tongue cancer SAS; format: cell-based, human; conditions: Homo sapiens, 72 h; SAS; repeated experiment; read-out: The results of antibiotic drug inhibiting cancer cell lines (cell viability analysis), SAS
[22] = test system: U-2OS; test: Cell viability analysis, osteosarcoma U-2OS; format: cell-based, human; conditions: Homo sapiens, 72 h; U2OS; repeated experiment; read-out: The results of antibiotic drug inhibiting cancer cell lines (cell viability analysis), U2OS
[23] = test system: 786-O (Renal adenocarcinoma); test: Cell viability analysis, renal cancer 786-O; format: cell-based, human; conditions: Homo sapiens, 786-0, 72 h; 786-O; repeated experiment; read-out: The results of antibiotic drug inhibiting cancer cell lines (cell viability analysis), 786-O
[24] = test system: HCT116 (p53+) (Colorectal Carcinoma)

With CCc1cc2c(cc1CC)CC(NC[C@H](O)c1ccc(O)c3[nH]c(=O)ccc13)C2 [Indacaterol Maleate] the viability at 10 µM ([1]; H1650, repeated experiment, read-out: The results of antibiotic drug inhibiting cancer cell lines (cell viability analysis), H1650) was 86.6%, the viability at 10 µM ([1]; drug 10 μM, 72 hours, WST-1, OD450 nm, read-out: cell viability (survival rate), H1650) was 36% and the viability at 10 µM ([2]; A549, repeated experiment, read-out: The results of antibiotic drug inhibiting cancer cell lines (cell viability analysis), A549) was 79.6%. The viability at 10 µM ([2]; drug 10 μM, 72 hours, WST-1, OD450 nm, read-out: cell viability (survival rate), A549) was 65.1%, the viability at 10 µM ([3]; AGS, repeated experiment, read-out: The results of antibiotic drug inhibiting cancer cell lines (cell viability analysis), AGS) was 50.2% and the viability at 10 µM ([3]; drug 10 μM, 72 hours, WST-1, OD450 nm, read-out: cell viability (survival rate), AGS) was 54.1%. It also gave a viability at 10 µM ([4]; MKN-45, repeated experiment, read-out: The results of antibiotic drug inhibiting cancer cell lines (cell viability analysis), MKN-45) of 84.5%, a viability at 10 µM ([4]; drug 10 μM, 72 hours, WST-1, OD450 nm, read-out: cell viability (survival rate), MKN-45) of 30.3% and a viability at 10 µM ([5]; HepG2, repeated experiment, read-out: The results of antibiotic drug inhibiting cancer cell lines (cell viability analysis), HepG2) of 84.4%. It also gave a viability at 10 µM ([5]; drug 10 μM, 72 hours, WST-1, OD450 nm, read-out: cell viability (survival rate), HepG2) of 81.2%, a viability at 10 µM [6] of 97.6% and a viability at 10 µM ([7]; read-out: The results of antibiotic drug inhibiting cancer cell lines (cell viability analysis), LoVo, repeated experiment) of 79.1%. The viability at 10 µM ([7]; read-out: cell viability (survival rate), LoVo, drug 10 μM, 72 hours, WST-1, OD450 nm) was 61.4%, the viability at 10 µM ([8]; A375, repeated experiment, read-out: The results of antibiotic drug inhibiting cancer cell lines (cell viability analysis), A375) was 87.2% and the viability at 10 µM ([8]; drug 10 μM, 72 hours, WST-1, OD450 nm, read-out: cell viability (survival rate), A375) was 45.7%. It also gave a viability at 10 µM [9] of 82.1%, a viability at 10 µM ([10]; repeated experiment, read-out: The results of antibiotic drug inhibiting cancer cell lines (cell viability analysis), HeLa) of 96.6% and a viability at 10 µM ([10]; drug 10 μM, 72 hours, WST-1, OD450 nm, read-out: cell viability (survival rate), HeLa) of 71.8%. For the same compound, the viability at 10 µM [11] was 94.3%, the viability at 10 µM ([12]; PC-3, repeated experiment, read-out: The results of antibiotic drug inhibiting cancer cell lines (cell viability analysis), PC-3) was 100% and the viability at 10 µM ([12]; drug 10 μM, 72 hours, WST-1, OD450 nm, read-out: cell viability (survival rate), PC3) was 55.5%. For the same compound, the viability at 10 µM [13] was 56%, the viability at 10 µM [14] was 122% and the viability at 10 µM ([15]; MCF-7, repeated experiment, read-out: The results of antibiotic drug inhibiting cancer cell lines (cell viability analysis), MCF-7) was 72.5%. The viability at 10 µM ([15]; drug 10 μM, 72 hours, WST-1, OD450 nm, read-out: cell viability (survival rate), MCF7) was 68.7%, the viability at 10 µM [16] was 103% and the viability at 10 µM [17] was 91.4%. The viability at 10 µM [18] was 85.4%, the viability at 10 µM [19] was 79.3% and the viability at 10 µM [20] was 95.3%. It also gave a viability at 10 µM [21] of 61.7%, a viability at 10 µM [22] of 62.6% and a viability at 10 µM [23] of 82.6%. It also gave a viability [24] of 91.9%.
